Results: patent US4548750A, “Pyrimido[4,5-d][2]benzazepines useful as sedatives and anxiolytic agents” (Hoffmann-La Roche Inc., priority 1983, dated 1985)

Columns and labels:
male mice = assay: Inclined Screen (paralyzing effects causing mice to slide off the screen); type: in vivo; settings: Mus musculus; groups of 6 male mice; at least 4 hours observation; maximum dose 500 mg/kg; read-out: Inclined Screen (PD50)
Description: Groups of 6 male mice are given the test drug (maximum dose of 500 mg/kg) and then are left on the inclined screen at least 4 hours for observation of paralyzing effects severe enough to cause them to slide off the screen. If activity is observed, additional doses are taken until at least two are reached at which some, but not all of the animals slide off the screen. Doses at which mice fall off the screen due to toxicity or excitation are not included in the calculation of PD50.

Toxicity (LD50) = settings: in vivo; PO; species not given
Cats = assay: Unanesthetized Cat (minimum symptoms, usually ataxia); type: in vivo; settings: Felis catus, po, cats treated orally
Description: Cats are treated orally and observed for minimum symptoms--usually ataxia. One cat is used at a dose of 50 mg/kg. If activity is present, up to three cats/dose are used. Results are given as minimum effective dose.

mice = assay: Footshock (blocking of footshock-induced fighting in pairs of mice); type: in vivo; settings: Mus musculus; pairs of mice pretreated 1 hour prior to second shocking; 3 out of 3 pairs must be blocked from fighting; maximum dose 100 mg/kg
Description: A pair of mice is confined under a one liter beaker placed on a grid which presents shock to the feet. At least 5 fighting episodes are elicited in a two-minute period. Pairs of mice are marked and pretreated 1 hour prior to a second shocking. Logarithmic dose intervals are utilized up to a maximum of 100 mg/kg. At the 100% blocking dose, 3 out of 3 pairs must be blocked from fighting.

Cc1nc(Cl)c2c(n1)CN=C(c1ccccc1)c1cc(Cl)ccc1-2 [1,9-Dichloro-3-methyl-7-phenyl-5H-pyrimido[4,5-d][2]benzazepine]
ED50 (male mice): 400 mg/kg | LD50 (Toxicity (LD50)): > 1000 mg/kg | minimal effective dose (Cats): 10 mg/kg | ED100 (mice): 10 mg/kg
